Data from ChEMBL document CHEMBL3045591, “Imidazole as an anti-epileptic: an overview” (Med Chem Res, 2012).

Tests used:
Mus musculus [1] = species on record: Mus musculus; experiment: Anticonvulsant activity in acute seizure Mus musculus (mouse) model assessed as protection against maximal electroshock-induced seizures; assay type: functional
[2] = Toxicity in po dosed Rattus norvegicus albino (rat); assay type: organism-based; conditions: in vivo
Mus musculus [3] = species on record: Mus musculus; experiment: Anticonvulsant activity in Mus musculus (mouse) assessed as protection against metrazole-induced seizures; assay type: functional
Mus musculus [4] = experiment: Anticonvulsant activity in Mus musculus (mouse) assessed as protection against maximal electroshock-induced seizures compound co-administered with losartan 50 mg/kg, ip; assay type: functional; conditions: route intraperitoneal
Mus musculus [5] = species on record: Mus musculus; experiment: Anticonvulsant activity in Mus musculus (mouse) assessed as protection against maximal electroshock-induced seizures; assay type: functional
Mus musculus [6] = experiment: Anticonvulsant activity in Mus musculus (mouse) assessed protection against subcutaneous pentylenetetrazole-induced seizures; assay type: functional
Mus musculus [7] = species on record: Mus musculus; experiment: Anticonvulsant activity against Mus musculus DBA/2 (mouse) assessed as protection against sound-induced seizure; assay type: functional; conditions: read-out: MED

## CCCOC(=O)NC1=NCC(c2ccccc2F)N1C (stereo not given)
Mus musculus [1]
  ED50: 23 mg/kg

## CC(C)OC(=O)NC1=NCC(c2ccccc2F)N1C (stereo not given)
Mus musculus [1]
  ED50: 23 mg/kg

## COc1cccc(-c2nc(-c3ccccc3)c(-c3ccccc3)[nH]2)c1
[2]
  MTD: ≤ 5000 mg/kg

## COC(=O)c1cnc(C)n1C(C)c1ccccc1.O=[N+]([O-])O (stereo not given)
Mus musculus [3]
  ED50: 68 mg/kg

## CCCC(CCC)C(=O)O [VALPROIC ACID]
Mus musculus [4]
  ED50: 195 mg/kg
Mus musculus [5]; Mus musculus
  ED50: 250 mg/kg

## Clc1ccc(-c2nc(Cn3ccnc3)cs2)cc1
Mus musculus [5]
  Activity: 33%
Mus musculus [6]
  Activity: 33%

## Cc1ncc(C(=O)Oc2ccccc2)n1C(C)c1ccccc1.O=[N+]([O-])O (stereo not given)
Mus musculus [3]
  ED50: 68 mg/kg

## O=[N+]([O-])c1cc2nc(O)c(O)nc2nc1-n1ccnc1
Mus musculus [7]
  minimal effective dose: 10 mg/kg
